Experimental findings from article PMC10454409, “Hybrids of Sterically Hindered Phenols and Diaryl Ureas: Synthesis, Switch from Antioxidant Activity to ROS Generation and Induction of Apoptosis” (International Journal of Molecular Sciences, 2023) are described below.

Assay [1] relates to MCF-7 cells (human breast adenocarcinoma). Briefly: MTT cytotoxicity test, MCF-7. Particulars: Homo sapiens, MCF7, MTT test; 24 h incubation per text, 48 h per method. It is filed as cell-based. A digest of the protocol:
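Viable MCF-7 cells quantified by MTT reduction to formazan, dissolved in DMSO and read at 540 nm. Triplicate experiments.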

In assay [2] the test system is isolated rat liver mitochondria. Briefly: Membrane potential of isolated mitochondria (Safranin A). It is filed as biochemical. The following applies: for Depolarization of mitochondrial membrane: isolated mitochondria. How it is done:
The membrane potential of rat […] mitochondria was measured with a Victor 3 plate analyzer (Perkin Elmer, Hamburg, Germany) using the potential-dependent indicator Safranin A [57]. The mitochondrial preparation was diluted in a buffer containing mannitol (225 mM) (Dia-M, Moscow, Russia), sucrose (75 mM) (Sigma Aldrich, Saint Louis, MO, USA), HEPES (10 mM) (Gibco, Scotland, UK), EGTA (20 µM) (Dia-M, Moscow, Russia) and KH2PO4 (1 mM) at pH = 7.4 at a ratio of 0.5 mg of protein to 1 mL of medium. Safranin A (5 µM) was added to the suspension immediately before the start of the measurement. The organelles were then energized by potassium succinate (5 mM) in the presence of rotenone (1 µM). Mitochondrial pore opening was induced by the addition of CaCl2 (25 µM).
Figure 8 Effect of the synthesized compounds on the membrane potential of rat liver mitochondria. (a) Kinetic lines of transmembrane potential changes at λex = 458 nm and λem = 590 nm. The concentration of the test substances was 100 µM. (b) Calculated parameters of % depolarization relative to control samples. Statistical significance was assessed using one-way ANOVA and Dunnett’s multiple comparison tests, where **** p < 0.0001 vs. control. (c) Concentration dependence of the effects of 11b and 17b on mitochondrial membrane potential. The concentration of the test substances was from 20 to 200 µM. Concentration of ions; Ca^2+—25 µM. Mitochondria were energized by potassium succinate and rotenone. Data are presented as mean±error of the mean (n = 3).

The subject of assay [3] is SH-SY5Y neuroblastoma cells. Nature of the assay: Glycolysis stress test (Seahorse XF96e, ECAR). Format: cell-based. The following applies: compound 100 µM. How it is done: We studied the ability of compounds to inhibit aerobic glycolysis using the Agilent Seahorse XF96e Analyzer (Seahorse Bioscience, North Billerica, MA, USA) assay of cellular metabolism on the level of proton production in samples examined on the SH-SY5Y neuroblastoma cell line using glycolysis stress tests. The extracellular acidification rate of the medium was measured in real time, which allowed us to assess the intensity of glycolysis in the cells by recording the main parameters of glycolytic function: basal glycolysis, glycolytic capacity and glycolytic reserve. Glycolytic capacity describes the maximum amount of glycolysis/glucose breakdown the cells can perform acutely, whereas glycolytic reserve is defined as the difference between the basal and maximal glycolytic capacity.
The ability of synthesized compounds to modulate […] glycolysis was studied using the Agilent Seahorse XF96e Analyzer (Seahorse Bioscience, Billerica, MA, USA) on the neuroblastoma SH-SY5Y cell line (40,000 cells per well) as described earlier.
Glycolysis was measured by subtracting the maximum rate of extracellular acidification of the medium before glucose injection from the maximum rate before oligomycin injection. Glycolytic capacity was measured by subtracting the maximum velocity value before glucose injection from the maximum velocity value after oligomycin injection. Glycolytic reserve was defined as the difference between glycolytic capacity and glycolysis.
Figure 6 Effect of synthesized compounds on the glycolytic profile of (a–c) SH-SY5Y tumor cells and (d) calculated parameters of glycolytic function. […] The concentration of compounds was 100 µM, glucose—10 mM, oligomycin—1 µM и 2-fluoro-2-deoxy-D-glucose—25 mM. Data are presented as mean±error of the mean (n = 3). Statistical significance was assessed using one-way ANOVA and Dunnett’s multiple comparison tests, where **** p < 0.0001, *** p < 0.001, ** p < 0.01 and * p < 0.05 vs. control.

In assay [4] the test system is HuTu 80 cells. Nature of the assay: Intracellular ROS level, CellROX Deep Red flow cytometry. It is filed as cell-based, human. The following applies: 48 h incubation, maximum concentration (IC50).
In assay [5] the test system is M-HeLa cells (human cervix epithelioid carcinoma). Briefly: MTT cytotoxicity test, M-HeLa. It is filed as cell-based. A digest of the protocol:
(§1)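 Cells seeded at 5 × 10^3 per well and grown at 37 °C to monolayer, then exposed to compounds for 48 h. Viability by MTT (0.5 mg/mL, serum-free medium, 4 h, 37 °C), formazan dissolved in DMSO, OD 540 nm. IC50 estimated from triplicate experiments.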

The subject of assay [6] is SH-SY5Y cells (neuroblastoma). Nature of the assay: MTT cytotoxicity test, SH-SY5Y. Format: cell-based. The following applies: Homo sapiens, SH-SY5Y; MTT test; 24 h incubation per text, 48 h per method. An outline of the steps: as §1

Consider `CCOP(=O)(OCC)C(c1cc(C(C)(C)C)c(O)c(C(C)(C)C)c1)c1ccc(NC(=O)Nc2ccc([N+](=O)[O-])cc2)cc1NC(=O)Nc1ccc([N+](=O)[O-])cc1` (centres unmarked) [17b], for which the IC50 worked out at 51 ± 4.2 µM in assay [1]; 24.3 ± 1.9 µM in assay [5] (Homo sapiens, M-HeLa, MTT test, 24 h incubation per text, 48 h per method); 54.8 ± 2.1 µM in assay [6]. The “Depolarization of mitochondrial membrane” value in assay [2] (compound 100 μM) is given as 50%; in assay [2] (compound 200 μM) it was around 100%. Also, in assay [2] (isolated rat liver mitochondria, compound 100 µM), the “Depolarization relative to control (class in Figure 8b)” value is reported as “High Depolarization”. In addition, the Glycolytic reserve result in assay [3] is reported as “ability to decrease glycolytic reserves”. In assay [3] (glucose 10 mM), the “Glycolysis: rate of extracellular acidification after saturating glucose” value is reported as “decrease in the rate of extracellular acidification”. Besides, the Glycolytic capacity entry in assay [3] (oligomycin 1 µM) is listed as “decrease in glycolytic capacity”. Besides, the “Intracellular ROS level” value in assay [4] is on record as 400.2 ± 5.2%. In addition, the “SI, selectivity index relative to Chang liver, M-HeLa” value in assay [5] (M-HeLa vs Chang liver) is on record as around 3.
